The subject of one assay is OVCAR3 cells. As to the kind of experiment: Cell proliferation assay (Celltiter-Glo), OVCAR3. Type of assay: cell-based. As to conditions: Homo sapiens, OVCAR-3, 120 h; OVCAR3 (overexpression of CCNE1), five days. As for the experimental part: Celltiter-Glo Luminescent Cell Viability Assay (Promega, Madison, WI, USA) was used to detect cell viability according to the manufacturer’s instructions. This assay is a homogeneous method of determining the number of viable cells in a culture based on quantitation of the ATP present, an indicator of metabolically active cells. Cells were digested and paved in white-bottomed 96-well plates with 1000 cells/100 μL cell suspension solution; then, different concentrations of compounds were added the next day. TOV-21G and HCT116 were placed in the incubator for three days and OVCAR3 for five days. Then, 100 μL Celltiter-Glo solution was added and mixed for 5 min; the luminous intensity of each well was detected with a spectrophotometer (BioTek, Winooski, VT, USA). The experiment was repeated three times to calculate the cell survival rate.

For assay [1], the system named is p-Rb, MDM2, p53 in HCT116 transplanted tumors. As to the kind of experiment: Western blot of transplanted tumor tissues of nude mice. Format: in vivo, Balb/c nude mice. As to conditions: Western blot of tumor tissue. On the procedure:
(§1) Total protein from HCT116, OVCAR3 cells and tissues was collected and homogenized in RIPA buffer. The total cellular protein extract was electrophoresed on 12% SDS-polyacrylamide gels and then transferred to a PVDF membrane (Thermo Fisher Scientific, Waltham, MA, USA). Primary antibodies were incubated overnight at 4 °C and secondary antibodies were incubated at room temperature for 1.5 h. Imaging was performed using Image Quant LAS4000 (GE, Boston, MA, USA).
HCT116 cells (1 × 10^6) were implanted into the back of adult male Balb/c nude mice by subcutaneous injection. […] The solvent or drug containing solution was administered daily to the vehicle and dosing groups by intraperitoneal injection (0.2 mL/20 g). Tumor growth was measured every three days during treatment. At the end of the treatment, the mice were killed, and the tumors were removed and weighed.

The test system of assay [2] is p-Rb, p-CDK2, MDM2, p53 in OVCAR3 cells. In words: Western blot of CDK2 pathway, MDM2 and p53 proteins in OVCAR3 cells. Format: cell-based. On the procedure: as §1
(In general: In western blotting, separated proteins are transferred to a membrane and probed.)

The test system of assay [3] is p-Rb, p-CDK2 in HCT116 cells. As to the kind of experiment: Western blot of CDK2 pathway proteins in HCT116 cells. Format: cell-based. As for the experimental part:
as §1

The next assay concerns the target T1, CDK6 (Homo sapiens, UniProt Q00534).
T1 construct: purchased Thermo Fisher Scientific
In words: Kinase antagonist activity assay (TR-FRET), CDK6. Type of assay: biochemical. As for the experimental part: The compounds were solubilized with DMSO (Solarbio Life Sciences, Beijing, China), and 11 concentrations were serially diluted at 3-fold; 100 nL of compound was added to 384-well plates, 5 μL of 2 × enzyme mixture (Thermo Fisher Scientific, Waltham, MA, USA) was added, and 5 μL of buffer was added instead of the complete inhibition control wells. Then, 1000 rpm centrifugation was performed for 30 s followed by a 15 min incubation at 23 °C. Next, 5 μL of 2 × MLight-MBP peptide (PerkinElmer, Waltham, MA, USA) was added to each well, with 1000 rpm centrifugation for 30 s and incubation at 23 °C for 90 min. At the end of the incubation, the reaction was terminated with buffer containing 15 mM EDTA and 2 nM Eu-anti-P-MBP antibody (PerkinElmer, Waltham, MA, USA), centrifuged at 1000 rpm for 1 min, and incubated at 23 °C for 60 min; the plates were read on a Perkin Elmer Envision ([…]).
For orientation: TR-FRET usually uses a lanthanide donor and a delayed reading to cut background.

A word on the IC50: it is the concentration that gives 50% inhibition. Usually IC90 stands for the concentration needed for an effect of 90%. Lower therefore signals an effect from little substance.

T1 sequence (Q00534 whole entry): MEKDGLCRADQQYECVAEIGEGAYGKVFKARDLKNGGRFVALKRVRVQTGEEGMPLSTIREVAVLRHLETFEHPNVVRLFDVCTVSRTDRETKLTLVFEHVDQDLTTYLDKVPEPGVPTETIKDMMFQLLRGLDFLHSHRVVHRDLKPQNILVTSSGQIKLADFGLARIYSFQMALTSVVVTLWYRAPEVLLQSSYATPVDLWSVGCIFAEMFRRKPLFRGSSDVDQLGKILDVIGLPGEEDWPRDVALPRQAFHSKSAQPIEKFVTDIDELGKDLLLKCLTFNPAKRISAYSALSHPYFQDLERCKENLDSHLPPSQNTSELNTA
T1 sequence (P24385 whole entry partner): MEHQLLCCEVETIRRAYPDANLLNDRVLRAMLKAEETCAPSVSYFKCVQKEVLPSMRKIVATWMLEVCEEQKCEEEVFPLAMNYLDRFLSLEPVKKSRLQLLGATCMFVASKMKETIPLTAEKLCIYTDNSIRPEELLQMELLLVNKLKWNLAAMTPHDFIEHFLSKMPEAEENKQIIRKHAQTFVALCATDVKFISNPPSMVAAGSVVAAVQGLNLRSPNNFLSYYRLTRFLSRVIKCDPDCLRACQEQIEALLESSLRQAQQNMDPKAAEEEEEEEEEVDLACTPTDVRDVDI

Take `CC1(C)CCN1C(=O)O[C@@H]1CC[C@H](c2cc(NC(=O)Cc3ccc(N4CCCC4=O)cc3)n[nH]2)C1` [III-13]: in the assay on OVCAR3 cells, the IC50 amounted to 115 nM and the 90% effect concentration (IC90) worked out at 398 nM. Besides, in assay [1], the “level of MDM2 in transplanted tumors” value was “significantly down-regulated”, the “level of p53 protein in transplanted tumors” value was “up-regulated” and the “level of p-Rb in the transplanted tumors” value is “significantly reduced”. In assay [2], the MDM2 protein expression result was “inhibited” and the p53 expression entry is listed as “significantly elevated”. In assay [2] (OVCAR3 cells), the “expression of p-Rb” value is on record as “significantly reduced” and the p-CDK2 expression entry was “no significant effect”. Further, in assay [3], the “expression of p-Rb” value is reported as “significantly reduced” and the p-CDK2 expression result is “no significant effect”. On CDK6, this compound had a 50% inhibitory concentration (IC50) of 1300 nM and an IC90 of 16000 nM.

(Values after PMC10856454, “Discovery of Novel Antitumor Small-Molecule Agent with Dual Action of CDK2/p-RB and MDM2/p53” (Molecules, 2024).)
